These results are taken from patent US7371555B2, “Polypeptides having α-H-α-amino acid amide racemase activity and nucleic acids encoding the same” (DSM IP Assets B.V., priority 2002, dated 2008).

Structures are written as SMILES.

Experiment [1] relates to E. coli clone containing the O. anthropi IA α-H-α-amino acid amide racemase gene (pOa(1)PLV49B10). Put plainly: Confirmation of potential positive clone of the O. anthropi IA gene library. It counts as cell-based, Ochrobactrum anthropi IA. The following applies: 70 mM substrate, 20 h at 30° C. The procedure:
Of all 32 potential positive clones identified in the screening, material from the masterplates was used to inoculate 3 ml of liquid screening medium containing 50 mg/l kanamycin. After growth for 2 days at 30° C., cells were collected by centrifuging 2 ml of these cell cultures. Then the cell pellets were washed four times in 25 mM Tris-HCl buffer, pH 7.5. Subsequently, the cell pellets were resuspended in 100 μl substrate solution containing 70 mM of D-phenylalanine amide, or D-leucine amide, or D-valine amide in 50 mM Tris-HCl, pH 7.5 and 1 mM MnCl2. After incubation for 20 h at 30° C., the reactions were stopped by the addition of 100 μl of 0.15 M HCl, after which the reaction mixtures were analyzed by the HPLC method described in Example 1.
This clone contained the O. anthropi IA α-H-α-amino acid amide racemase gene on its 7.7 kb plasmid. This was concluded from the fact that transformation of this plasmid into E. coli TOP10 cells inevitably led to recombinant cells that converted D-leucine amide into L-Leucine. […] The sequence of this gene is listed as nucleotides 98 to 1417 (including the TAA stopcodon) of SEQ ID NO:1 encoding the protein of SEQ ID: NO. 2 as presented infra.

Experiment [2] deals with α-H-α-amino acid amide racemase from Ochrobactrum anthropi IA. Put plainly: Substrate specificity, CFE from E. coli TOP10/pKEC_AZAR_3 (Example 7). The format is biochemical. The following applies: relative to the activity towards D-leucine amide; 75 mM substrate, 20 mM EDTA, pH 8.0, 37° C. On the procedure:
Two pre-cultures of E. coli TOP10/pKEC_AZAR—3 (see Example 4) were prepared by inoculation of 2 erlenmeyer flasks with 100 ml of 2*TY medium (10 g/l Yeast extract, 16 g/l Tryptone, 5 g/l NaCl) containing 50 mg/l of kanamycin with 10 μl of a glycerol stock per flask. After overnight cultivation at 28° C. and 200 rpm, the pre-cultures were pooled, and subsequently used to inoculate 2 erlenmeyer flasks each containing 1 l of the same medium. Also these flasks were cultivated at 28° C. and 200 rpm for 16-18 h. Cells were harvested by centrifugation (15 min. at 6,200×g, 4° C.), washed with 20 mM HEPES-NaOH, pH 7.5, pooled, weighed, and resuspended in a solution containing 20 mM HEPES-NaOH, pH 7.5, 20 μM pyridoxal-5-phosphate, and 1.3 mM of dithiothreitol in a 1:3 ratio of wet weight cells to solution. Then, cells were disintegrated by 10 min. sonification with a Soniprep 150 of MSE operated at maximum amplitude using time intervals of 10 sec. (i.e., 10 sec. sonification, 10 sec. cooling) and cooling in ice/acetone. Particles were removed by centrifugation, after which sucrose was added to the cell free extract to a final concentration of 0.25 M. The resulting cell free extract (CFE) was stored in aliquots at −20° C. E. coli TOP10/pBAD/Myc-HisC (Invitrogen) cells were treated in exactly the same way and served as negative control.
The substrate specificity of the α-H-α-amino acid racemase from O. anthropi IA was determined by measuring the racemase activity of the above-mentioned CFE towards a number of enantiomerically pure amino acid amides. Each reaction mixture of 10 ml (including the CFE) contained 50 mM HEPES-NaOH, pH 8.0, 20 μM pyridoxal-5-phosphate, 0.4 mg/ml BSA, 1 mM dithiothreitol, 20 mM EDTA and 75 mM of one of the amino acid amides tested. Reactions were started by the addition of 1 ml of the thawed CFE of E. coli TOP10/pKEC_AZAR—3 or E. coli TOP10/pBAD/Myc-HisC (blank) and were incubated at 37° C. At regular time intervals samples of 1 ml were taken and transferred to vials containing 1 ml of 1M H3PO4 to stop the reaction. After sufficient dilution of the samples in 0.4 M borate buffer pH 9.4, the mixtures obtained were analyzed using HPLC to determine the exact concentrations of the two amino acid and two amino acid amide enantiomers according to the following method.
The initial activity for the different substrates tested was calculated from the linear parts of the progress curves, in which the conversion was plotted against the reaction time. Use of the linear part of the progress curves secured that only samples taken at time points at which the substrate concentration was still sufficiently high, were used for the calculations. The conversion was calculated by dividing the amount of amino acid and amino acid amide formed via the racemase reaction (so with the opposite stereochemistry compared to the substrate molecule) by the total amount of two amino acid enantiomers and the two amino acid amide enantiomers.

Take `CC(C)C[C@@H](N)C(N)=O` [D-leucine amide]: the “formation of L-leucine from D-leucine amide” value in experiment [1] is given as “significant formation of L-leucine”. In experiment [2], this molecule gave a Rel. initial activity of 100%.
